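Assay format: 96-well plates, 48-hour exposure. GI50 marks 50% less growth. The concentration for full growth arrest is given as TGI.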
Key:
Test in all cases: growth of human tumour cells (NCI), 48 h
KM12 colon = tested on: KM12 colon
RPMI-8226 leukemia = tested on: RPMI-8226 leukemia
T-47D breast = tested on: T-47D breast
786-0 renal = tested on: 786-0 renal
SK-OV-3 ovarian = tested on: SK-OV-3 ovarian
CAKI-1 renal = tested on: CAKI-1 renal
BT-549 breast = tested on: BT-549 breast
OVCAR-4 ovarian = tested on: OVCAR-4 ovarian
MOLT-4 leukemia = tested on: MOLT-4 leukemia
NCI-H522 lung = tested on: NCI-H522 lung
SNB-19 CNS = tested on: SNB-19 CNS
UACC-257 melanoma = tested on: UACC-257 melanoma
M14 melanoma = tested on: M14 melanoma
SN12C renal = tested on: SN12C renal
PC-3 prostate = tested on: PC-3 prostate
OVCAR-8 ovarian = tested on: OVCAR-8 ovarian
MALME-3M melanoma = tested on: MALME-3M melanoma
U251 CNS = tested on: U251 CNS
OVCAR-3 ovarian = tested on: OVCAR-3 ovarian
SK-MEL-2 melanoma = tested on: SK-MEL-2 melanoma
NCI-H226 lung = tested on: NCI-H226 lung
SW-620 colon = tested on: SW-620 colon
DU-145 prostate = tested on: DU-145 prostate
NCI-H23 lung = tested on: NCI-H23 lung
SK-MEL-5 melanoma = tested on: SK-MEL-5 melanoma
CCRF-CEM leukemia = tested on: CCRF-CEM leukemia
UACC-62 melanoma = tested on: UACC-62 melanoma
HCT-15 colon = tested on: HCT-15 colon
K-562 leukemia = tested on: K-562 leukemia
SF-539 CNS = tested on: SF-539 CNS
HCT-116 colon = tested on: HCT-116 colon
IGROV1 ovarian = tested on: IGROV1 ovarian
A498 renal = tested on: A498 renal
HOP-92 NSCLC = tested on: HOP-92 NSCLC
LOX IMVI melanoma = tested on: LOX IMVI melanoma
HS 578T breast = tested on: HS 578T breast
MDA-MB-435 = tested on: MDA-MB-435
HCC-2998 colon = tested on: HCC-2998 colon
SF-295 CNS = tested on: SF-295 CNS
NCI/ADR-RES ovarian = tested on: NCI/ADR-RES ovarian
RXF 393 renal = tested on: RXF 393 renal
HL-60(TB) leukemia = tested on: HL-60(TB) leukemia
HOP-62 NSCLC = tested on: HOP-62 NSCLC
NCI-H460 lung = tested on: NCI-H460 lung
EKVX NSCLC = tested on: EKVX NSCLC
SF-268 CNS = tested on: SF-268 CNS
TK-10 renal = tested on: TK-10 renal
SR leukemia = tested on: SR leukemia
COLO 205 colon = tested on: COLO 205 colon
MDA-MB-468 breast = tested on: MDA-MB-468 breast
OVCAR-5 ovarian = tested on: OVCAR-5 ovarian
SNB-75 CNS = tested on: SNB-75 CNS
HT29 colon = tested on: HT29 colon
MDA-MB-231 breast = tested on: MDA-MB-231 breast
SK-MEL-28 melanoma = tested on: SK-MEL-28 melanoma
UO-31 renal = tested on: UO-31 renal
MCF7 breast = tested on: MCF7 breast
A549 NSCLC = tested on: A549 NSCLC
ACHN renal = tested on: ACHN renal

Question: With `CCCn1c(=O)c2[nH]c(-c3ccc(OCc4nc5ccc(F)cc5[nH]4)cc3)nc2n(CCC)c1=O` as the compound, how does the GI50 (KM12 colon) read?
Answer: 78.9 µM

Question: What about the TGI (KM12 colon) of the same compound?
Answer: > 100 µM

Question: And the GI50 (RPMI-8226 leukemia)?
Answer: 5.14 µM

Question: And the TGI (RPMI-8226 leukemia)?
Answer: > 100 µM

Question: And the GI50 (T-47D breast)?
Answer: 4.4 µM

Question: What about the TGI (T-47D breast) of the same compound?
Answer: 50.4 µM

Question: And the GI50 (786-0 renal)?
Answer: 16.2 µM

Question: What about the TGI (786-0 renal) of the same compound?
Answer: > 100 µM

Question: And the GI50 (SK-OV-3 ovarian)?
Answer: 21 µM

Question: And the TGI (SK-OV-3 ovarian)?
Answer: > 100 µM

Question: What about the GI50 (CAKI-1 renal) of the same compound?
Answer: 15.9 µM

Question: What about the TGI (CAKI-1 renal) of the same compound?
Answer: 62.4 µM

Question: What about the GI50 (BT-549 breast) of the same compound?
Answer: 25 µM

Question: And the TGI (BT-549 breast)?
Answer: > 100 µM

Question: What about the GI50 (OVCAR-4 ovarian) of the same compound?
Answer: 4.24 µM

Question: And the TGI (OVCAR-4 ovarian)?
Answer: > 100 µM

Question: What about the GI50 (MOLT-4 leukemia) of the same compound?
Answer: 6.44 µM

Question: And the TGI (MOLT-4 leukemia)?
Answer: > 100 µM

Question: What about the GI50 (NCI-H522 lung) of the same compound?
Answer: 8.29 µM

Question: What about the TGI (NCI-H522 lung) of the same compound?
Answer: > 100 µM

Question: What about the GI50 (SNB-19 CNS) of the same compound?
Answer: > 100 µM

Question: What about the TGI (SNB-19 CNS) of the same compound?
Answer: > 100 µM

Question: And the GI50 (UACC-257 melanoma)?
Answer: 30.4 µM

Question: And the TGI (UACC-257 melanoma)?
Answer: > 100 µM

Question: And the GI50 (M14 melanoma)?
Answer: 52 µM

Question: And the TGI (M14 melanoma)?
Answer: > 100 µM

Question: What about the GI50 (SN12C renal) of the same compound?
Answer: 16.5 µM

Question: And the TGI (SN12C renal)?
Answer: > 100 µM

Question: And the GI50 (PC-3 prostate)?
Answer: 5.96 µM

Question: And the TGI (PC-3 prostate)?
Answer: > 100 µM

Question: And the GI50 (OVCAR-8 ovarian)?
Answer: 6.34 µM

Question: And the TGI (OVCAR-8 ovarian)?
Answer: 34 µM

Question: And the GI50 (MALME-3M melanoma)?
Answer: 12.6 µM

Question: And the TGI (MALME-3M melanoma)?
Answer: 38.7 µM

Question: What about the GI50 (U251 CNS) of the same compound?
Answer: 17.3 µM

Question: What about the TGI (U251 CNS) of the same compound?
Answer: > 100 µM

Question: What about the GI50 (OVCAR-3 ovarian) of the same compound?
Answer: 15.1 µM

Question: And the TGI (OVCAR-3 ovarian)?
Answer: 67 µM

Question: And the GI50 (SK-MEL-2 melanoma)?
Answer: > 100 µM

Question: What about the TGI (SK-MEL-2 melanoma) of the same compound?
Answer: > 100 µM

Question: What about the GI50 (NCI-H226 lung) of the same compound?
Answer: 11.2 µM

Question: What about the TGI (NCI-H226 lung) of the same compound?
Answer: 36.9 µM

Question: What about the GI50 (SW-620 colon) of the same compound?
Answer: 37.2 µM

Question: What about the TGI (SW-620 colon) of the same compound?
Answer: > 100 µM

Question: What about the GI50 (DU-145 prostate) of the same compound?
Answer: 41.5 µM

Question: And the TGI (DU-145 prostate)?
Answer: > 100 µM

Question: What about the GI50 (NCI-H23 lung) of the same compound?
Answer: 21 µM

Question: And the TGI (NCI-H23 lung)?
Answer: > 100 µM

Question: What about the GI50 (SK-MEL-5 melanoma) of the same compound?
Answer: 8.5 µM

Question: And the TGI (SK-MEL-5 melanoma)?
Answer: 33.3 µM

Question: And the GI50 (CCRF-CEM leukemia)?
Answer: 8.91 µM

Question: And the TGI (CCRF-CEM leukemia)?
Answer: > 100 µM

Question: What about the GI50 (UACC-62 melanoma) of the same compound?
Answer: 12.3 µM

Question: And the TGI (UACC-62 melanoma)?
Answer: > 100 µM

Question: What about the GI50 (HCT-15 colon) of the same compound?
Answer: 30 µM

Question: And the TGI (HCT-15 colon)?
Answer: > 100 µM

Question: What about the GI50 (K-562 leukemia) of the same compound?
Answer: 8.81 µM

Question: What about the TGI (K-562 leukemia) of the same compound?
Answer: > 100 µM

Question: What about the GI50 (SF-539 CNS) of the same compound?
Answer: 12.2 µM

Question: What about the TGI (SF-539 CNS) of the same compound?
Answer: 27.7 µM

Question: And the GI50 (HCT-116 colon)?
Answer: 22.4 µM

Question: What about the TGI (HCT-116 colon) of the same compound?
Answer: > 100 µM

Question: And the GI50 (IGROV1 ovarian)?
Answer: 16.5 µM

Question: And the TGI (IGROV1 ovarian)?
Answer: > 100 µM

Question: What about the GI50 (A498 renal) of the same compound?
Answer: 3.36 µM

Question: What about the TGI (A498 renal) of the same compound?
Answer: 21.3 µM

Question: And the GI50 (HOP-92 NSCLC)?
Answer: 4.78 µM

Question: And the TGI (HOP-92 NSCLC)?
Answer: 36.8 µM

Question: What about the GI50 (LOX IMVI melanoma) of the same compound?
Answer: 15.9 µM

Question: And the TGI (LOX IMVI melanoma)?
Answer: 46.9 µM

Question: And the GI50 (HS 578T breast)?
Answer: 4.1 µM

Question: And the TGI (HS 578T breast)?
Answer: > 100 µM

Question: And the GI50 (MDA-MB-435)?
Answer: 25.1 µM

Question: And the TGI (MDA-MB-435)?
Answer: > 100 µM

Question: What about the GI50 (HCC-2998 colon) of the same compound?
Answer: > 100 µM

Question: What about the TGI (HCC-2998 colon) of the same compound?
Answer: > 100 µM

Question: What about the GI50 (SF-295 CNS) of the same compound?
Answer: 4.64 µM

Question: What about the TGI (SF-295 CNS) of the same compound?
Answer: 65.6 µM

Question: And the GI50 (NCI/ADR-RES ovarian)?
Answer: 30.4 µM

Question: What about the TGI (NCI/ADR-RES ovarian) of the same compound?
Answer: > 100 µM

Question: What about the GI50 (RXF 393 renal) of the same compound?
Answer: 2.76 µM

Question: What about the TGI (RXF 393 renal) of the same compound?
Answer: 11.3 µM

Question: And the GI50 (HL-60(TB) leukemia)?
Answer: > 100 µM

Question: And the TGI (HL-60(TB) leukemia)?
Answer: > 100 µM

Question: And the GI50 (HOP-62 NSCLC)?
Answer: 9.88 µM

Question: What about the TGI (HOP-62 NSCLC) of the same compound?
Answer: > 100 µM

Question: And the GI50 (NCI-H460 lung)?
Answer: 11.1 µM

Question: And the TGI (NCI-H460 lung)?
Answer: 32.3 µM

Question: And the GI50 (EKVX NSCLC)?
Answer: 30.3 µM

Question: What about the TGI (EKVX NSCLC) of the same compound?
Answer: > 100 µM

Question: What about the GI50 (SF-268 CNS) of the same compound?
Answer: 25 µM

Question: And the TGI (SF-268 CNS)?
Answer: > 100 µM

Question: What about the GI50 (TK-10 renal) of the same compound?
Answer: 24.4 µM

Question: And the TGI (TK-10 renal)?
Answer: > 100 µM

Question: What about the GI50 (SR leukemia) of the same compound?
Answer: 22.3 µM

Question: And the TGI (SR leukemia)?
Answer: > 100 µM

Question: What about the GI50 (COLO 205 colon) of the same compound?
Answer: 99.1 µM

Question: What about the TGI (COLO 205 colon) of the same compound?
Answer: > 100 µM

Question: What about the GI50 (MDA-MB-468 breast) of the same compound?
Answer: 4.75 µM

Question: What about the TGI (MDA-MB-468 breast) of the same compound?
Answer: 40.9 µM

Question: What about the GI50 (OVCAR-5 ovarian) of the same compound?
Answer: > 100 µM

Question: What about the TGI (OVCAR-5 ovarian) of the same compound?
Answer: > 100 µM

Question: What about the GI50 (SNB-75 CNS) of the same compound?
Answer: 2.48 µM

Question: What about the TGI (SNB-75 CNS) of the same compound?
Answer: 20.2 µM

Question: And the GI50 (HT29 colon)?
Answer: 26.9 µM

Question: What about the TGI (HT29 colon) of the same compound?
Answer: > 100 µM

Question: And the GI50 (MDA-MB-231 breast)?
Answer: 15.7 µM

Question: What about the TGI (MDA-MB-231 breast) of the same compound?
Answer: 39.3 µM

Question: And the GI50 (SK-MEL-28 melanoma)?
Answer: 28.1 µM

Question: What about the TGI (SK-MEL-28 melanoma) of the same compound?
Answer: > 100 µM

Question: What about the GI50 (UO-31 renal) of the same compound?
Answer: 9.09 µM

Question: What about the TGI (UO-31 renal) of the same compound?
Answer: 29 µM

Question: What about the GI50 (MCF7 breast) of the same compound?
Answer: 8.54 µM

Question: What about the TGI (MCF7 breast) of the same compound?
Answer: 93.2 µM

Question: And the GI50 (A549 NSCLC)?
Answer: 15.5 µM

Question: And the TGI (A549 NSCLC)?
Answer: > 100 µM

Question: What about the GI50 (ACHN renal) of the same compound?
Answer: 14.9 µM

Question: And the TGI (ACHN renal)?
Answer: 50.1 µM
